Tested on: Ba/F3-TPOR/mutCALR type 1 engineered cells
Assay: Cell proliferation with antibody and/or ruxolitinib, mutCALR Type 1
Format: cell-based
Conditions: ruxolitinib alone at 50 nM; 72 hours; dotted line of FIG. 10 (Type 1 and Type 2 panels); read-out: inhibition of the level of oncogenic cell proliferation
Protocol: To test the ability of anti-mutCALR antibodies to potentiate the therapeutic response of the JAK1/2 inhibitor ruxolitinib, Ba/F3 cells were engineered to express MPL+mutCALR Type 1 (52 bp deletion) or MPL+mutCALR Type 2 (5 bp insertion) as described above. Cells were plated at 5,000 cells per well in RPMI 1640+2% FBS, treated with 50 nM of ruxolitinib and/or anti-mutCALR antibodies. Cells were incubated for 72 hours followed by assessment of cell viability using the CellTiter-Glo Luminescent Cell Viability Assay (Promega, Madison, Wis.) and Top Count (Perkin Elmer, Boston, Mass.) or Pherastar (BMG Labtech, Ortenberg, Germany) for luminescence quantification. Ruxolitinib used at a concentration of 50 nM inhibited the level of oncogenic cell proliferation by approximately 20% (dotted line).

`N#CC[C@H](C1CCCC1)n1cc(-c2ncnc3[nH]ccc23)cn1` [Ruxolitinib, ruxolitinib, reference compound] gave an inhibition at 0.05 µM of about 20%.

From patent US20230272055A1, “ANTI-MUTANT CALRETICULIN (CALR) ANTIBODIES AND USES THEREOF” (Incyte Corporation, priority 2021, published 2023)
